Data taken from patent publication US20230242552A1, “Nitrogen-Containing Heterocyclic Compound, Preparation Method Therefor and Use Thereof” (280 Bio, Inc, priority 2022, published 2023).

How the values were obtained:
Settings in all cases: CellTiter Glo, 120 hours incubation
[1] = test system: NCI-H358 (KRAS G12C mutation); test: Proliferation inhibition measured by CTG, NCI-H358; format: cell-based, human
Procedure: (§1) NCI-H358 is a human non-small cell lung cancer cell line with KRAS G12C mutation; AGS is a gastric cancer cell line with KRAS G12D mutation; SW480 is a colon cancer cell lines with KRAS G12V mutation; A375 is a wild type malignant melanoma cell line. The proliferation inhibitory effect of the compounds on various mutations was evaluated by determining the proliferation inhibitory activity of the compounds on these cell lines.
(§2) The assay was conducted on either 384-well plates or 96-well plates. The procedures are as follows:
(§3) The cell suspensions were added to 384- or 96-well plates (384-well plate: 40 μL; 96-well plate: 100 μL) except for peripheral wells. The plates were incubated in a carbon dioxide incubator overnight. Prepared compounds (10 concentration gradients by serial 3-fold dilution) were added to the wells. The cell plates were incubated in a carbon dioxide incubator for 120 hours. CellTiter Glo reagent (384 well plate: 25 μL; 96 well plate: 100 μL) was added to the 384- or 96-well plates. The plates were shaken for 10 minutes away from light, and incubated for 10 minutes. The plates were read by EnVision system. Inhibition curves were plotted using XLFit and IC50 values were calculated. “IC50>10 μM” is denoted by “*”, “10 μM≥IC50>1 μM” is denoted by […] is denoted by “***”, “---” means no data.

[2] = test system: A375 (wild type malignant melanoma cell line); test: Proliferation inhibition measured by CTG, A375; format: cell-based
Procedure: as §1, §2, §3

[3] = test system: AGS (gastric cancer cell line with KRAS G12D mutation); test: Proliferation inhibition measured by CTG, AGS; format: cell-based
Procedure: as §1, §2, §3

[4] = test system: SW480 (colon cancer cell lines with KRAS G12V mutation); test: Proliferation inhibition measured by CTG, SW480; format: cell-based
Procedure: as §1, §2, §3

## CC1Cc2cncc(F)c2CN1c1nc(OC[C@@H]2CCCCN2C)nc2c1CCN(c1cccc3cccc(Cl)c13)C2 (some centres unmarked) [Compound 9-2]
[1]
  IC50: ≤ 1000 nM
[2]
  IC50: ≤ 1000 nM
[3]
  IC50: ≤ 1000 nM
[4]
  IC50: ≤ 1000 nM

## C[C@H]1Cc2cncc(F)c2CN1c1nc(OC[C@@H]2CCCN2C)nc2c1CCN(c1cccc3cccnc13)C2 [Compound 17]
[1]; Homo sapiens, NCI-H358, 120 h
  IC50: ≤ 1000 nM
[2]; Homo sapiens, A-375, 120 h
  IC50: 1000 to 10000 nM
[3]; 120 h
  IC50: ≤ 1000 nM
[4]; Homo sapiens, SW480, 120 h
  IC50: ≤ 1000 nM

## C[C@@H]1Cc2cncc(F)c2CN1c1nc(OC[C@@H]2CCCN2C)nc2cc(-c3cccc4cccnc34)ccc12 [Compound 33]
[1]; Homo sapiens, NCI-H358, 120 h
  IC50: ≤ 1000 nM
[2]; Homo sapiens, A-375, 120 h
  IC50: ≤ 1000 nM
[3]; 120 h
  IC50: ≤ 1000 nM
[4]; Homo sapiens, SW480, 120 h
  IC50: ≤ 1000 nM

## C[C@H]1Cc2cncc(F)c2CN1c1nc(OC[C@@H]2CCCN2C)nc2c1CCN(c1cccc3cccc(F)c13)C2 [Compound 15]
[1]; Homo sapiens, NCI-H358, 120 h
  IC50: ≤ 1000 nM
[2]; Homo sapiens, A-375, 120 h
  IC50: 1000 to 10000 nM
[3]; 120 h
  IC50: ≤ 1000 nM
[4]; Homo sapiens, SW480, 120 h
  IC50: ≤ 1000 nM

## C[C@H]1Cc2cncc(F)c2CN1c1nc(OC[C@H]2COCCN2C)nc2c1CCN(c1cccc3cccc(F)c13)C2 [Compound 24]
[1]; Homo sapiens, NCI-H358, 120 h
  IC50: 1000 to 10000 nM
[2]; Homo sapiens, A-375, 120 h
  IC50: > 10000 nM
[3]; 120 h
  IC50: 1000 to 10000 nM
[4]; Homo sapiens, SW480, 120 h
  IC50: 1000 to 10000 nM

## C[C@H]1Cc2cncc(F)c2CN1c1nc(OC[C@H]2CCCCN2C)nc2c1CCN(c1cccc3cccc(F)c13)C2 [Compound 23]
[1]; Homo sapiens, NCI-H358, 120 h
  IC50: 1000 to 10000 nM
[2]; Homo sapiens, A-375, 120 h
  IC50: 1000 to 10000 nM
[3]; 120 h
  IC50: ≤ 1000 nM
[4]; Homo sapiens, SW480, 120 h
  IC50: 1000 to 10000 nM

## C[C@@H]1Cc2cncc(F)c2CN1c1nc(OC[C@@H]2CCCCN2C)nc2c1CCN(c1cccc3cccc(F)c13)C2 [Compound 28]
[1]; Homo sapiens, NCI-H358, 120 h
  IC50: ≤ 1000 nM
[2]; Homo sapiens, A-375, 120 h
  IC50: ≤ 1000 nM
[3]; 120 h
  IC50: ≤ 1000 nM
[4]; Homo sapiens, SW480, 120 h
  IC50: ≤ 1000 nM

## CC1Cc2cncc(F)c2CN1c1nc(OC[C@@H]2CCCCN2C)nc2c1CCN(c1cccc3cccc(Cl)c13)C2 (some centres unmarked) [Compound 9-1]
[1]; Homo sapiens, NCI-H358, 120 h
  IC50: ≤ 1000 nM
[2]; Homo sapiens, A-375, 120 h
  IC50: ≤ 1000 nM
[3]; 120 h
  IC50: ≤ 1000 nM
[4]; Homo sapiens, SW480, 120 h
  IC50: ≤ 1000 nM

## C[C@@H](CN(C)C)Oc1nc2c(c(N3Cc4c(F)cncc4C[C@@H]3C)n1)CCN(c1cccc3cccc(F)c13)C2 [Compound 26]
[1]; Homo sapiens, NCI-H358, 120 h
  IC50: 1000 to 10000 nM
[2]; Homo sapiens, A-375, 120 h
  IC50: 1000 to 10000 nM
[3]; 120 h
  IC50: 1000 to 10000 nM
[4]; Homo sapiens, SW480, 120 h
  IC50: 1000 to 10000 nM

## C[C@@H]1Cc2cncc(F)c2CN1c1nc(OC[C@@H]2CCCN2C)nc2cc(-c3ccc(F)c4sc(N)nc34)ccc12 [Compound 27]
[1]; Homo sapiens, NCI-H358, 120 h
  IC50: ≤ 1000 nM
[2]; Homo sapiens, A-375, 120 h
  IC50: ≤ 1000 nM
[3]; 120 h
  IC50: ≤ 1000 nM
[4]; Homo sapiens, SW480, 120 h
  IC50: ≤ 1000 nM

## C#Cc1c(F)ccc2cc(O)cc(N3CCc4c(nc(OC[C@@H]5CCCN5C)nc4N4Cc5c(F)cncc5CC4C)C3)c12 (some centres unmarked) [Compound 7]
[1]; Homo sapiens, NCI-H358, 120 h
  IC50: 1000 to 10000 nM
[2]; Homo sapiens, A-375, 120 h
  IC50: 1000 to 10000 nM
[3]; 120 h
  IC50: ≤ 1000 nM
[4]; Homo sapiens, SW480, 120 h
  IC50: 1000 to 10000 nM

## C[C@H]1Cc2cncc(F)c2CN1c1nc(OC[C@@H]2CCCN2C)nc2c1CCN(c1cncc3ccccc13)C2 [Compound 13]
[1]; Homo sapiens, NCI-H358, 120 h
  IC50: 1000 to 10000 nM
[2]; Homo sapiens, A-375, 120 h
  IC50: > 10000 nM
[3]; 120 h
  IC50: 1000 to 10000 nM
[4]; Homo sapiens, SW480, 120 h
  IC50: 1000 to 10000 nM

## C[C@H]1Cc2cncc(F)c2CN1c1nc(OC[C@@H]2CCCN2C)nc2c1CCN(c1cccc3ccncc13)C2 [Compound 18]
[1]; Homo sapiens, NCI-H358, 120 h
  IC50: 1000 to 10000 nM
[2]; Homo sapiens, A-375, 120 h
  IC50: 1000 to 10000 nM
[3]; 120 h
  IC50: 1000 to 10000 nM
[4]; Homo sapiens, SW480, 120 h
  IC50: 1000 to 10000 nM

## C[C@@H]1Cc2cncc(F)c2CN1c1nc(OC[C@H]2CCCN2C)nc2c1CCN(c1cccc3cccc(F)c13)C2 [Compound 31]
[1]; Homo sapiens, NCI-H358, 120 h
  IC50: ≤ 1000 nM
[2]; Homo sapiens, A-375, 120 h
  IC50: ≤ 1000 nM
[3]; 120 h
  IC50: ≤ 1000 nM
[4]; Homo sapiens, SW480, 120 h
  IC50: ≤ 1000 nM

## C[C@H]1Cc2cncc(F)c2CN1c1nc(OC[C@@H]2CCCCN2C)nc2c1CCN(c1cccc3cccc(F)c13)C2 [Compound 12]
[1]; Homo sapiens, NCI-H358, 120 h
  IC50: ≤ 1000 nM
[2]; Homo sapiens, A-375, 120 h
  IC50: ≤ 1000 nM
[3]; 120 h
  IC50: ≤ 1000 nM
[4]; Homo sapiens, SW480, 120 h
  IC50: ≤ 1000 nM

## C[C@H]1Cc2cncc(F)c2CN1c1nc(OC[C@@H]2CN(C)CCN2C)nc2c1CCN(c1cccc3cccc(F)c13)C2 [Compound 25]
[1]; Homo sapiens, NCI-H358, 120 h
  IC50: 1000 to 10000 nM
[2]; Homo sapiens, A-375, 120 h
  IC50: 1000 to 10000 nM
[3]; 120 h
  IC50: 1000 to 10000 nM
[4]; Homo sapiens, SW480, 120 h
  IC50: 1000 to 10000 nM

## C[C@@H]1Cc2cncc(F)c2CN1c1nc(O[C@@H](C)CN(C)C)nc2c1CCN(c1cccc3cccc(F)c13)C2 [Compound 29]
[1]; Homo sapiens, NCI-H358, 120 h
  IC50: ≤ 1000 nM
[2]; Homo sapiens, A-375, 120 h
  IC50: 1000 to 10000 nM
[3]; 120 h
  IC50: ≤ 1000 nM
[4]; Homo sapiens, SW480, 120 h
  IC50: ≤ 1000 nM

## C[C@H]1Cc2cncc(F)c2CN1c1nc(OC[C@@H]2CCCN2C)nc2cc(-c3cccc4cccc(F)c34)ccc12 [Compound 21]
[1]; Homo sapiens, NCI-H358, 120 h
  IC50: 1000 to 10000 nM
[2]; Homo sapiens, A-375, 120 h
  IC50: 1000 to 10000 nM
[3]; 120 h
  IC50: ≤ 1000 nM
[4]; Homo sapiens, SW480, 120 h
  IC50: 1000 to 10000 nM

## CC1Cc2cnccc2CN1c1nc(OC[C@@H]2CCCN2C)nc2c1CCN(c1cccc3cccc(Cl)c13)C2 (some centres unmarked) [Compound 3]
[1]
  IC50: ≤ 1000 nM
[2]
  IC50: ≤ 1000 nM
[3]
  IC50: ≤ 1000 nM
[4]
  IC50: ≤ 1000 nM

## CC1Cc2cnccc2CN1c1nc(OC[C@@H]2CCCN2C)nc2c1CCN(c1cccc3cccc(Cl)c13)C2 (some centres unmarked) [Compound 3-1]
[1]; Homo sapiens, NCI-H358, 120 h
  IC50: 1000 to 10000 nM
[2]; Homo sapiens, A-375, 120 h
  IC50: 1000 to 10000 nM
[3]; 120 h
  IC50: 1000 to 10000 nM
[4]; Homo sapiens, SW480, 120 h
  IC50: 1000 to 10000 nM

## C[C@H]1Cc2cncc(F)c2CN1c1nc(OC[C@@H]2CCCN2C)nc2c1CCN(c1ccnc3ccccc13)C2 [Compound 16]
[1]; Homo sapiens, NCI-H358, 120 h
  IC50: 1000 to 10000 nM
[2]; Homo sapiens, A-375, 120 h
  IC50: 1000 to 10000 nM
[3]; 120 h
  IC50: 1000 to 10000 nM
[4]; Homo sapiens, SW480, 120 h
  IC50: 1000 to 10000 nM

## C[C@@H]1Cc2cncc(F)c2CN1c1nc(OC[C@@H]2CCCN2C)nc2c1CCN(c1cccc3cccnc13)C2 [Compound 32]
[1]; Homo sapiens, NCI-H358, 120 h
  IC50: ≤ 1000 nM
[2]; Homo sapiens, A-375, 120 h
  IC50: ≤ 1000 nM
[3]; 120 h
  IC50: ≤ 1000 nM
[4]; Homo sapiens, SW480, 120 h
  IC50: ≤ 1000 nM

## CC1Cc2cncc(F)c2CN1c1nc(OC[C@@H]2CCCN2C)nc2c1CCN(c1cccc3cccc(Cl)c13)C2 (single isomer, unassigned) [Compound 4-2]
[1]
  IC50: ≤ 1000 nM
[2]
  IC50: ≤ 1000 nM
[3]
  IC50: ≤ 1000 nM
[4]
  IC50: ≤ 1000 nM

## C[C@H]1Cc2cncc(F)c2CN1c1nc(OC[C@@H]2CCCN2C)nc2c1CCN(c1cccc3ncccc13)C2 [Compound 14]
[1]; Homo sapiens, NCI-H358, 120 h
  IC50: 1000 to 10000 nM
[2]; Homo sapiens, A-375, 120 h
  IC50: 1000 to 10000 nM
[3]; 120 h
  IC50: 1000 to 10000 nM
[4]; Homo sapiens, SW480, 120 h
  IC50: 1000 to 10000 nM

## C[C@H]1Cc2cncc(F)c2CN1c1nc(OC[C@H]2CCCN2C)nc2c1CCN(c1cccc3cccc(F)c13)C2 [Compound 22]
[1]; Homo sapiens, NCI-H358, 120 h
  IC50: ≤ 1000 nM
[2]; Homo sapiens, A-375, 120 h
  IC50: 1000 to 10000 nM
[3]; 120 h
  IC50: ≤ 1000 nM
[4]; Homo sapiens, SW480, 120 h
  IC50: ≤ 1000 nM

## CC1Cc2cnccc2CN1c1nc(OC[C@@H]2CCCN2C)nc2c1CCN(c1cccc3cccc(Cl)c13)C2 (some centres unmarked) [Compound 3-2]
[1]
  IC50: ≤ 1000 nM
[2]
  IC50: ≤ 1000 nM
[3]
  IC50: ≤ 1000 nM
[4]
  IC50: ≤ 1000 nM
